Values quoted from earlier work in patent US20260345798A1, “COMPOUNDS AND METHODS OF USE THEREOF” (Virginia Commonwealth University, priority 2023, published 2026).

What was measured:
[1] = test system: second PDZ2 domain of MDA-9/Syntenin; settings: cited from earlier work
[2] = test system: PDZ domains in other sequence-similar proteins; settings: cited from earlier work
MDA-9/Syntenin = target: T1, MDA-9/Syntenin (Homo sapiens, UniProt O00560); settings: literature comparison; cited from earlier work
T1 sequence (O00560 1-298): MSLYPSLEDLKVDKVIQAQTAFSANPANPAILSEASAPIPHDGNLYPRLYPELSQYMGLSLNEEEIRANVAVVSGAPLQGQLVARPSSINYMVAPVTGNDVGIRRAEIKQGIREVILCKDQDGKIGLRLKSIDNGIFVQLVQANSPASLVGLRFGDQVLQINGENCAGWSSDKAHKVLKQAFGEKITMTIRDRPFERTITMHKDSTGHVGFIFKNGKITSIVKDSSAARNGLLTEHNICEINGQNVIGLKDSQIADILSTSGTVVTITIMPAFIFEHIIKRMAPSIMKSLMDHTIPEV

cancer invasion = settings: in vitro and in vivo, multiple experimental animal models; cited from earlier work
[3] = test system: non-transformed normal or transformed cells; settings: other cancer contexts; cited from earlier work
T cells = settings: cited from earlier work

For `Cc1cc(NC(=O)c2nc3nc4c(c(=O)n3[nH]2)CCC4)c(C)cc1NC(=O)CCc1nnc(-c2ccccc2)o1` [PDZ1i], the “binding to PDZ2 domain of MDA-9/Syntenin” value [1] is given as “without appreciable binding”, the “binding to PDZ domains in other sequence-similar proteins” value [2] is given as “without appreciable binding” and the Kd (MDA-9/Syntenin) is given as 23 µM. The “blocking of cancer invasion” value (cancer invasion) was “effectively blocks cancer invasion”, the “detrimental effect on cells” value [3] was “not detrimental” and the “T cell infiltration into the tumor environment” value (T cells) was “causes T cell infiltration into the tumor environment”.
